Like-named read-outs stand apart in the source and are kept apart here.
Tests used:
[1] = tested on: LPS-induced cognitive deficit in CD-1 mice; test: Rodent LPS model of brain inflammation, T-maze spontaneous alternation; type: in vivo, mouse; conditions: for Recovery (%) / Spontaneous alternation (%) Mean: LPS 250 μg/kg
[2] = tested on: THP1-differentiated macrophages; type: cell-based, human; parameters: key to Significant reduction in IL-6 / Significant reduction in TNF-α / Significant reduction in IL-1β: NS: indicates a non-significant reduction in the indicated cytokine; +: indicates a p value<0.05 in Tukey post test; ++: indicates a p value<0.01 in Tukey post test; conditions: for Significant reduction in IL-1β / Significant reduction in IL-6 / Significant reduction in TNF-α: 24 hrs LPS
[3] = tested on: pulmonary LPS-stimulated rats; test: Cytokine expression in BALF supernatant (multiplex immunoassay), LPS acute pulmonary inflammation; type: in vivo, rat
[4] = tested on: Rat hippocampal neurons; test: Synaptogenesis assay; type: cell-based; conditions: for Significant increase in: Synapses: Table 4 study
[5] = tested on: Rat primary cortical neuron cultures; type: cell-based; conditions: for Significance of neuroprotection vs 1 uM LPS: 24 h LPS; for protection of primary neurons from LPS-stimulated inflammatory toxicity: at at least one dose tested
[6] = tested on: pulmonary LPS-stimulated rats; test: Immune cell infiltration in BALF, LPS acute pulmonary inflammation; type: in vivo, rat
[7] = tested on: Rat hippocampal neurons; test: Neurite outgrowth assay; type: cell-based
[8] = tested on: scopolamine-induced spatial memory deficits in rats; test: Scopolamine-induced spatial memory deficit, Morris water maze (3 mg/kg scopolamine, 8 days); type: in vivo, rat

## CCC(C)CN1CC2N(Cc3ccc(C(F)(F)F)cc3)CCC(=O)N2[C@@H](C)C1=O (some centres unmarked) [Compound 5a]
[1]; 1.25 mg/kg p.o. 14 days
  Recovery (%): 58%
  Spontaneous alternation (%) Mean: 59%
[1]; 1.25 mg/kg p.o. 14 days, listed as Cmpd 5a
  Spontaneous alternation (%) Mean: 59.3%
[1]; 2.5 mg/kg p.o. 14 days
  Recovery (%): 53%
  Spontaneous alternation (%) Mean: 58%
[1]; 2.5 mg/kg p.o. 14 days, listed as Cmpd 5a
  Spontaneous alternation (%) Mean: 57.9%
[1]; 5 mg/kg p.o. 14 days
  Recovery (%): 64%
  Spontaneous alternation (%) Mean: 61%
[1]; 5 mg/kg p.o. 14 days, listed as Cmpd 5a
  Spontaneous alternation (%) Mean: 60.7%
[1]; 10 mg/kg p.o. 14 days
  Recovery (%): 53%
  Spontaneous alternation (%) Mean: 58%
[1]; 10 mg/kg p.o. 14 days, listed as Cmpd 5a
  Spontaneous alternation (%) Mean: 57.9%
[1]; 20 mg/kg p.o. 14 days
  Recovery (%): 61%
  Spontaneous alternation (%) Mean: 60%
[1]; 20 mg/kg p.o. 14 days, listed as Cmpd 5a
  Spontaneous alternation (%) Mean: 60.0%
[1]; T-maze
  significance of reversal of LPS-induced cognitive deficit (in words): significant reversal of LPS-induced cognitive deficits at all doses
[2]; 0.1 nM
  Significant reduction in IL-1β: ++ (indicates a p value<0.01 in Tukey post test)
  Significant reduction in IL-6: NS
  Significant reduction in TNF-α: NS
[2]; 10 nM
  Significant reduction in IL-1β: ++ (indicates a p value<0.01 in Tukey post test)
  Significant reduction in IL-6: + (indicates a p value<0.05 in Tukey post test)
  Significant reduction in TNF-α: NS
[2]; 1000 nM
  Significant reduction in IL-1β: ++ (indicates a p value<0.01 in Tukey post test)
  Significant reduction in IL-6: ++ (indicates a p value<0.01 in Tukey post test)
  Significant reduction in TNF-α: + (indicates a p value<0.05 in Tukey post test)
[2]; at at least one tested dose
  expression of IL-1β (in words): significantly reduced the expression of IL-1β and TNF-α
  expression of IL-6 (in words): significantly reduced the expression of IL-6
  expression of TNF-α (in words): significantly reduced the expression of IL-1β and TNF-α
[3]; 0.075 mg/kg IV
  CCL3, significant change in expression in BALF supernatant: + (+ = Significant change in cytokine quantification, p < 0.05 by Student's T-test.)
  CX3CL1, significant change in expression in BALF supernatant: + (+ = Significant change in cytokine quantification, p < 0.05 by Student's T-test.)
  EGF, significant change in expression in BALF supernatant: + (+ = Significant change in cytokine quantification, p < 0.05 by Student's T-test.)
  IFN-γ, significant change in expression in BALF supernatant: + (+ = Significant change in cytokine quantification, p < 0.05 by Student's T-test.)
  IL-1α, significant change in expression in BALF supernatant: + (+ = Significant change in cytokine quantification, p < 0.05 by Student's T-test.)
  IL-1β, significant change in expression in BALF supernatant: + (+ = Significant change in cytokine quantification, p < 0.05 by Student's T-test.)
  IL-10, significant change in expression in BALF supernatant: + (+ = Significant change in cytokine quantification, p < 0.05 by Student's T-test.)
  IL-12p70, significant change in expression in BALF supernatant: + (+ = Significant change in cytokine quantification, p < 0.05 by Student's T-test.)
  IL-17A, significant change in expression in BALF supernatant: + (+ = Significant change in cytokine quantification, p < 0.05 by Student's T-test.)
[3]; 0.75 mg/kg IV
  IFN-γ, significant change in expression in BALF supernatant: + (+ = Significant change in cytokine quantification, p < 0.05 by Student's T-test.)
  IL-1α, significant change in expression in BALF supernatant: + (+ = Significant change in cytokine quantification, p < 0.05 by Student's T-test.)
  IL-1β, significant change in expression in BALF supernatant: + (+ = Significant change in cytokine quantification, p < 0.05 by Student's T-test.)
  IL-10, significant change in expression in BALF supernatant: + (+ = Significant change in cytokine quantification, p < 0.05 by Student's T-test.)
  IL-17A, significant change in expression in BALF supernatant: + (+ = Significant change in cytokine quantification, p < 0.05 by Student's T-test.)
[3]; 7.5 mg/kg IV
  IL-1α, significant change in expression in BALF supernatant: + (+ = Significant change in cytokine quantification, p < 0.05 by Student's T-test.)
  IL-10, significant change in expression in BALF supernatant: + (+ = Significant change in cytokine quantification, p < 0.05 by Student's T-test.)
[3]; any dose, p<0.05 vs LPS-only animals
  cytokines with significant changes in expression in BALF supernatant (list): CCL3, CXCL1, IFN-γ, IL-1α, IL-1p, IL-1β, IL-12p70, and IL-17A
[4]
  synapse counts (in words): increase synapse counts at doses of 1 nM and 100 nM
[4]; 1 nM
  Significant increase in: Synapses: ++++ (++++ = p < 0.0001)
[4]; 100 nM
  Significant increase in: Synapses: ++++ (++++ = p < 0.0001)
[5]; 0.1 nM
  Significance of neuroprotection vs 1 uM LPS: +++ (+++ indicates p<0.001)
[5]; 1 nM
  Significance of neuroprotection vs 1 uM LPS: +++ (+++ indicates p<0.001)
[5]; 10 nM
  Significance of neuroprotection vs 1 uM LPS: +++ (+++ indicates p<0.001)
[5]; 100 nM
  Significance of neuroprotection vs 1 uM LPS: +++ (+++ indicates p<0.001)
[5]; 1 μM
  Significance of neuroprotection vs 1 uM LPS: +++ (+++ indicates p<0.001)
[5]
  protection of primary neurons from LPS-stimulated inflammatory toxicity: protected primary neurons from LPS-stimulated inflammatory toxicity
[6]; 0.075 mg/kg IV
  Neutrophils in BALF, reduction vs disease control: ++ (++ = >25% reduction in cell count vs disease control)
  Total Leukocytes in BALF, reduction vs disease control: ++ (++ = >25% reduction in cell count vs disease control)
[6]; 0.75 mg/kg IV
  Neutrophils in BALF, reduction vs disease control: + (+ = >5% reduction in cell count vs disease control)
  Total Leukocytes in BALF, reduction vs disease control: + (+ = >5% reduction in cell count vs disease control)
[6]; 7.5 mg/kg IV
  Neutrophils in BALF, reduction vs disease control: + (+ = >5% reduction in cell count vs disease control)
  Total Leukocytes in BALF, reduction vs disease control: + (+ = >5% reduction in cell count vs disease control)
[6]; rat, in vivo
  neutrophil counts compared to LPS-only controls (in words): reduced both total leukocyte counts and neutrophil counts
  total leukocyte counts compared to LPS-only controls (in words): reduced both total leukocyte counts and neutrophil counts
[7]
  neurite length / extension of neurites (in words): increase neurite length at 1 nM
[7]; 1 nM, Table 4 study
  Significant increase in: Neurite length: ++++ (++++ = p < 0.0001)

## CCC(C)CN1CC2N(Cc3ccc(OC(F)F)cc3)CCC(=O)N2[C@@H](C)C1=O (some centres unmarked) [Compound 6a]
[2]; 0.1 nM
  Significant reduction in IL-1β: NS
  Significant reduction in IL-6: NS
  Significant reduction in TNF-α: NS
[2]; 10 nM
  Significant reduction in IL-1β: NS
  Significant reduction in IL-6: NS
  Significant reduction in TNF-α: NS
[2]; 1000 nM
  Significant reduction in IL-1β: + (indicates a p value<0.05 in Tukey post test)
  Significant reduction in IL-6: NS
  Significant reduction in TNF-α: + (indicates a p value<0.05 in Tukey post test)
[2]; at at least one tested dose
  expression of IL-1β (in words): significantly reduced the expression of IL-1β and TNF-α
  expression of TNF-α (in words): significantly reduced the expression of IL-1β and TNF-α
[8]; 1 mg/kg PO
  Cognitive Improvement: − (− indicates post-test p-value above 0.06)
[8]; 10 mg/kg PO
  Cognitive Improvement: ++ (++ indicates post-test p-value between 0.05 and 0.01)
[5]; 0.1 nM
  Significance of neuroprotection vs 1 uM LPS: +++ (+++ indicates p<0.001)
[5]; 1 nM
  Significance of neuroprotection vs 1 uM LPS: +++ (+++ indicates p<0.001)
[5]; 10 nM
  Significance of neuroprotection vs 1 uM LPS: +++ (+++ indicates p<0.001)
[5]; 100 nM
  Significance of neuroprotection vs 1 uM LPS: +++ (+++ indicates p<0.001)
[5]; 1 μM
  Significance of neuroprotection vs 1 uM LPS: +++ (+++ indicates p<0.001)
[5]
  protection of primary neurons from LPS-stimulated inflammatory toxicity: protected primary neurons from LPS-stimulated inflammatory toxicity
